Test results from patent publication US12410179B2, “Modulators of TNF alpha activity and uses thereof” (RayThera, Inc., priority 2023, dated 2025).

Target: TNFα (Homo sapiens, UniProt P01375)
Assay: HEK-Blue hTNFα reporter assay
Format: cell-based
Set-up: purchased R&D biosystem (R&D Systems) 210-TA-020/CF
Details: HEK-Blue hTNFα reporter cells, SEAP readout; read-out: IC50 Range
Description: Stimulation of HEK293 cells by TNFα leads to activation of the NF-κB pathway. The potency of compounds was examined in HEK-Blue™ hTNFα reporter cells (Invivogen, Cat #hkb-tnfdmyd). HEK-Blue™ TNFα cells were generated by stable transfection of HEK293 cell line with a SEAP reporter gene under the control of the […] minimal promoter fused to NF-κB binding sites. Stimulation of HEK-Blue™ TNFα cells with TNFα triggers the activation of the NF-κB-inducible promoter and the production of SEAP. Levels of SEAP in the supernatant can be easily determined using QUANTI-Blue™ Solution (Invivogen, cat #rep-qbs) by reading the OD at 620-655 nm.
HEK-Blue™ TNFα cells were cultured in DMEM supplemented with 10% FBS, 100p/mL penicillin, 100 μg/mL streptomycin, 100 μg/mL normocin, 1 μg/mL puromycin, and 100 μg/mL zeocin. The culture was maintained in culture incubator with 5% CO2 at 37° C. When used for assay, the cells were gently rinsed twice with pre-warmed phosphate buffered saline (PBS) and detached in presence of PBS by tapping the flask or by using a cell scraper. The cells were spun to remove PBS and resuspended in fresh, pre-warmed test medium (DMEM supplemented with 10% FBS, 100p/mL penicillin, and 100 μg/mL streptomycin). A serial dilution of work solution of tested compound was made in DMSO with 1000× of final concentration, and 40 nL of compound DMSO solution was transferred into 384-well plates (Corning 3764) by Echo, and incubated with 10 μL of recombinant hTNFα (R&D biosystem, Cat #210-TA-020/CF) for 1 h at 37° C. The compound/hTNFα mixture well received 30 μL HEK-Blue™ TNFα cell suspension at 10000 cells/well, and then incubated at 37° C. with 5% CO2 for 24 h. The final concentration of hTNFα is […]. After incubation, 5 μL of induced cell supernatant was transferred to a new 384-well plate well (Coring 3764) to mix with 45 μL of QUANTI-Blue Solution. After 1 h incubation at 37° C., the plate was read using a spectrophotometer at 620 nm.
The percentage of inhibition was calculated by the following formula: % inhibition=(positive control−Sample)/(positive control−negative control)*100 • Positive control: OD620 reading of cells with hTNFα stimulation. • Negative control: OD620 reading of cells without hTNFα stimulation. • Sample: OD620 reading of cells with compound at specific concentration and hTNFα stimulation
The % inhibition was plotted against compound concentration in logarithmic scale and the IC50 was rendered using 4-parameter nonlinear regression (GraphPad Prism).

Chain of TNFα (P01375 77-233 limits assumed): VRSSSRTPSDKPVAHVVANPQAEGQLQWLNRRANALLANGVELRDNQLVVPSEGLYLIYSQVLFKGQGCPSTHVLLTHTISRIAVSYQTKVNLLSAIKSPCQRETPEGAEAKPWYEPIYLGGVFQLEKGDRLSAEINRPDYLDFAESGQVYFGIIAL

Row | Compound | IC50 [nM]
1 | [2H]C([2H])([2H])N1C(=O)c2cccc(C#N)c2[C@H]2C[C@@H]1c1nn3cc(F)c(-c4cnc(C5(N)CCC5)nc4)cc3c12 [Example 307] | 25 to 100
2 | C[C@]1(O)C[C@](N)(c2ccc(-c3ccn4nc5c(c4n3)[C@@H]3C[C@H]5NC(=O)c4cccc(OC(F)F)c43)cn2)C1 [Example 220] | 25 to 100
3 | [2H]C([2H])([2H])N1C(=O)c2cccc(OC(F)F)c2[C@H]2C[C@@H]1c1nn3cc(F)c(-c4cnc([C@]5(O)C[C@@](C)(N)C5)cn4)cc3c12 [Example 260] | 25 to 100
4 | CN1C(=O)c2cccc(OC(F)F)c2[C@H]2C[C@@H]1c1nn3ccc(-c4cnc([C@]5(N)C[C@@](C)(C(=O)O)C5)nc4)cc3c12 [Example 88] | < 25
5 | [2H]C([2H])([2H])N1C(=O)c2cccc(OC(F)F)c2[C@H]2C[C@@H]1c1nn3ccc(-c4cnc(C(C)(C)N)c(F)c4)cc3c12 [Example 325] | < 25
6 | [2H]C([2H])([2H])N1C(=O)c2cccc(OC(F)F)c2[C@H]2C[C@@H]1c1nn3ccc(-c4cnc([C@]5(N)C[C@@](C)(CO)C5)nc4)cc3c12 [Example 269] | < 25
7 | CN1C(=O)c2cccc(OC(F)F)c2[C@H]2C[C@@H]1c1nn3ccc(-c4cnc([C@H](N)C5CC5)nc4)cc3c12 [Example 103] | < 25
8 | CN1C(=O)c2cccc(OC(F)F)c2[C@H]2C[C@@H]1c1nn3cc(F)c(-c4ccc(P(C)(C)=O)nc4)cc3c12 [Example 29] | < 25
9 | CN1C(=O)c2cccc(OC(F)F)c2[C@H]2C[C@@H]1c1nn3cc(F)c(-c4cnc(C5(N)CCC5)nc4)cc3c12 [Example 41] | < 25
10 | CN1C(=O)c2cccc(OC(F)F)c2[C@H]2C[C@@H]1c1nn3cc(F)c(-c4cnc([C@]5(N)C[C@@](C)(O)C5)nc4)cc3c12 [Example 36] | < 25
11 | O=C1N[C@@H]2C[C@H](c3c(OC(F)F)cccc31)c1c2nn2ccc(-c3cnc(C4(O)CC(F)(F)C4)nc3)cc12 [Example 150] | < 25
12 | [2H]C([2H])([2H])N1C(=O)c2cccc(OC(F)F)c2[C@H]2C[C@@H]1c1nn3ccc(-c4cnc([C@@](O)(CC#N)C(F)F)nc4)cc3c12 [Example 97] | < 25
13 | CN1C(=O)c2cccc(C#N)c2[C@H]2C[C@@H]1c1nn3ccc(-c4cnc(C5(N)CCC5)nc4)cc3c12 [Example 54] | < 25
14 | CN1C(=O)c2cccc(OC(F)F)c2[C@H]2C[C@@H]1c1nn3ccc(-c4cnc([C@]5(O)C[C@@](C)(C#N)C5)nc4)cc3c12 [Example 18] | < 25
15 | CN1C(=O)c2cccc(OC(F)F)c2[C@H]2C[C@@H]1c1nn3ccc(-c4cnc([C@H](O)CN5CCC5)nc4)cc3c12 [Example 172] | 100 to 1000
16 | [2H]C([2H])([2H])N1C(=O)c2cccc(OC(F)F)c2[C@H]2C[C@@H]1c1nn3ccc(-c4cnc([C@]5(N)CCOC5)nc4)nc3c12 [Example 193] | < 25
17 | [2H]C([2H])([2H])N1C(=O)c2cccc(OC(F)F)c2[C@H]2C[C@@H]1c1nn3cc(F)c(-c4cnc([C@]5(O)C[C@@](C)(N)C5)c(F)c4)cc3c12 [Example 256] | < 25
18 | CN1C(=O)c2cccc(OC(F)F)c2[C@H]2C[C@@H]1c1nn3ccc(-c4ncc([C@@H](O)[C@H]5CCO5)cn4)cc3c12 [Example 130] | < 25
19 | [2H]C([2H])([2H])N1C(=O)c2ccc(F)c(OC(F)F)c2[C@H]2C[C@@H]1c1nn3ccc(-c4cnc([C@]5(N)C[C@@](C)(O)C5)c(F)c4)nc3c12 [Example 289] | < 25
20 | CN1C(=O)c2cccc(OC(F)F)c2[C@H]2C[C@@H]1c1nn3ccc(-c4ccnc(OCP(C)(C)=O)c4)cc3c12 [Example 70] | < 25
21 | [2H]C([2H])([2H])N1C(=O)c2cccc(OC(F)F)c2[C@H]2C[C@@H]1c1nn3ccc(-c4cnc([C@]5(C#N)C[C@@](C)(N)C5)c(F)c4)cc3c12 [Example 292] | < 25
22 | C[C@]1(C#N)C[C@](N)(c2ncc(-c3nc4c5c(nn4cc3F)[C@H]3C[C@@H]5c4c(OC(F)F)cccc4C(=O)N3)cc2F)C1 [Example 174] | < 25

Further lines, results first:

Row | IC50 [nM] | Compound
23 | < 25 | [2H]C([2H])([2H])N1C(=O)c2cccc(OC(F)F)c2[C@H]2C[C@@H]1c1nn3cc(F)c(-c4cnc([C@]5(N)C[C@](O)(C(F)(F)F)C5)nc4)nc3c12 [Example 183]
24 | < 25 | [2H]C([2H])([2H])N1C(=O)c2cccc(OC(F)F)c2[C@H]2C[C@@H]1c1nn3ccc(-c4cnc([C@](C)(N)CC#N)nc4)cc3c12 [Example 264]
25 | < 25 | CN1CCN(c2ncc(-c3ccn4nc5c(c4c3)[C@@H]3C[C@H]5N(C)C(=O)c4cccc(OC(F)F)c43)cn2)CC1 [Example 155]
26 | < 25 | [2H]C([2H])([2H])N1C(=O)c2cccc(OC(F)F)c2[C@H]2C[C@@H]1c1nn3ccc(-c4cnc([C@]5(N)C[C@@](C)(C#N)C5)nc4C)cc3c12 [Example 231]
27 | < 25 | C[C@]1(C#N)C[C@](N)(c2ncc(-c3ccn4nc5c(c4c3)[C@@H]3C[C@H]5NC(=O)c4cccc(OC(F)F)c43)cc2F)C1 [Example 190]
28 | < 25 | C[C@@H](O)[C@H](O)c1ncc(-c2ccn3nc4c(c3c2)[C@@H]2C[C@H]4N(C)C(=O)c3cccc(OC(F)F)c32)cn1 [Example 119]
29 | < 25 | CN1C(=O)c2cccc(OC(F)F)c2[C@H]2C[C@@H]1c1nn3ccc(-c4cnc([C@]5(O)CC[C@@H](O)C5)nc4)cc3c12 [Example 101]
30 | < 25 | [2H]C([2H])([2H])N1C(=O)c2cccc(OC(F)F)c2[C@H]2C[C@@H]1c1nn3ccc(-c4cnc(C5(N)CCC5)nc4C)cc3c12 [Example 241]
31 | < 25 | CN1C(=O)c2cccc(OC(F)F)c2[C@H]2C[C@@H]1c1nn3ccc(-c4cnc(C5(N)COC5)nc4)cc3c12 [Example 49]
32 | < 25 | [2H]C([2H])([2H])N1C(=O)c2cccc(OC(F)F)c2[C@H]2C[C@@H]1c1nn3cnc(-c4cnc(C5(N)CCC5)nc4)cc3c12 [Example 262]
33 | < 25 | [2H]C([2H])([2H])N1C(=O)c2cccc(OC(F)F)c2[C@H]2C[C@@H]1c1nn3cnc(-c4cnc(C(C)(C)N)nc4)cc3c12 [Example 298]
34 | < 25 | [2H]C([2H])([2H])N1C(=O)c2cccc(OC(F)F)c2[C@H]2C[C@@H]1c1nn3cc(C)c(-c4cnc(C5(N)CCC5)nc4)nc3c12 [Example 216]
35 | < 25 | C[C@@](O)(c1ncc(-c2ccn3nc4c(c3c2)[C@@H]2C[C@H]4NC(=O)c3cccc(OC(F)F)c32)cn1)C(F)F [Example 151]
36 | < 25 | CN1C(=O)c2cccc(OC(F)F)c2[C@H]2C[C@@H]1c1nn3ccc(-c4cnc(P(C)(C)=O)cn4)cc3c12 [Example 87]
37 | < 25 | CN1C(=O)c2cccc(OC(F)F)c2[C@H]2C[C@@H]1c1nn3cc(F)c(-c4cnc(P(C)(C)=O)cn4)cc3c12 [Example 128]
38 | < 25 | CN1C(=O)c2cccc(OC(F)F)c2[C@H]2C[C@@H]1c1nn3cnc(-c4cnc([C@]5(O)C[C@@](C)(C#N)C5)nc4)cc3c12 [Example 45]
39 | < 25 | CN1C(=O)c2cccc(OC(F)F)c2[C@H]2C[C@@H]1c1nn3cc(F)c(-c4ncc(C5(O)COC5)cn4)cc3c12 [Example 166]
40 | < 25 | C[C@H](O)[C@@H](O)c1ncc(-c2ccn3nc4c(c3c2)[C@@H]2C[C@H]4N(C)C(=O)c3cccc(OC(F)F)c32)cn1 [Example 118]
41 | < 25 | CN1C(=O)c2cccc(OC(F)F)c2[C@H]2C[C@@H]1c1nn3ccc(-c4cnc(C(C)(C)N)nc4)cc3c12 [Example 324]
42 | < 25 | CN1C(=O)c2cccc(OC(F)F)c2[C@H]2C[C@@H]1c1nn3ccc(-c4ncc([C@@H](O)C5COC5)cn4)cc3c12 [Example 107]
43 | < 25 | [2H]C([2H])([2H])N1C(=O)c2cccc(OC(F)F)c2[C@H]2C[C@@H]1c1nn3ccc(-c4cnc([C@H](N)C5CC5)nc4)nc3c12 [Example 277]
44 | < 25 | CN1C(=O)c2ccnc(OC(F)F)c2[C@H]2C[C@@H]1c1nn3ccc(-c4cnc([C@]5(O)C[C@@](C)(O)C5)nc4)cc3c12 [Example 320, (7R,14S)-1-(difluoromethoxy)-12-(2-((1s,3R)-1,3-dihydroxy-3-methylcyclobutyl)pyrimidin-5-yl)-6-methyl-6,7-dihydro-7,14-methanopyrido[4,3-c]pyrido[1′,2′:1,5]pyrazolo[4,3-f]azocin-5 (14H)-one]
45 | < 25 | CN1C(=O)c2cccc(C3CC3)c2[C@H]2C[C@@H]1c1nn3ccc(-c4ccc(P(C)(C)=O)nc4)cc3c12 [Example 304]
